According to patent US12410160B2 (Gilead Sciences, Inc., priority 2021, dated 2025):
Like-named read-outs stand apart in the source and are kept apart here.

What was measured:
[1] = molecular target: KHK-C expressed in NRK-52E cells (Homo sapiens (Human), UniProt P50053); experiment: KHK-C Cell-based Assay (EC50), NRK CTG, fructose-mediated ATP-depletion
HepG2 cells = experiment: F1P Cell-Based Assay (EC50), 13C6-fructose-1-phosphate in HepG2 cells (cell culture medium or 50% human plasma)
human KHK-C = human KHK-C (Homo sapiens (Human), UniProt P50053); experiment: KHK Biochemical Assay (IC50), ADP-Glo, KHK-C; details: average of at least two separate assays
In short: (§1)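 His-tagged enzyme expressed in BL21 (DE3), Ni-NTA purified. Compounds, serially diluted 1:3 in DMSO, pre-incubated 30 min with enzyme in 50 mM Hepes pH 7.4, 140 mM KCl, 5 mM MgCl2, 0.01% Triton-X, then ATP and fructose added; 4 h at room temperature. ADP formation read by ADP-Glo luminescence.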

human KHK-A = human KHK-A (Homo sapiens (Human), UniProt P50053); experiment: KHK Biochemical Assay (IC50), ADP-Glo, KHK-A; details: average of at least two separate assays
In short: as §1

[2] = Homo sapiens, HepG2, HepG2 cells, 50% human plasma, read-out: F1P 50% HP EC50
[3] = Homo sapiens, HepG2, read-out: F1P 10% FBS EC50, HepG2 cells, cell culture medium (10% FBS)
[4] = read-out: NRK CTG EC50, NRK-52E cells, fructose-mediated ATP-depletion, Cell-Titer Glo

KHK-C expressed in NRK-52E cells, sequence (P50053 whole entry): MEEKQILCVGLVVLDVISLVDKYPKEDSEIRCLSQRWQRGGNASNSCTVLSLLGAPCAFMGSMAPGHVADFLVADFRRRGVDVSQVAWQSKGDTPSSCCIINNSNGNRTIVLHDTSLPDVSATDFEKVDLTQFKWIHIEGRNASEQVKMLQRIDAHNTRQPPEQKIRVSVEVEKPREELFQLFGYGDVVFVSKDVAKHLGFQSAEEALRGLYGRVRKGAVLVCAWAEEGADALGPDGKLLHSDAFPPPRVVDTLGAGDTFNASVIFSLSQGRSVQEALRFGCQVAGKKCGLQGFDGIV
human KHK-C, sequence (P50053 whole entry): as above
human KHK-A, sequence (P50053 other isoform, or with tags, fused parts or gaps): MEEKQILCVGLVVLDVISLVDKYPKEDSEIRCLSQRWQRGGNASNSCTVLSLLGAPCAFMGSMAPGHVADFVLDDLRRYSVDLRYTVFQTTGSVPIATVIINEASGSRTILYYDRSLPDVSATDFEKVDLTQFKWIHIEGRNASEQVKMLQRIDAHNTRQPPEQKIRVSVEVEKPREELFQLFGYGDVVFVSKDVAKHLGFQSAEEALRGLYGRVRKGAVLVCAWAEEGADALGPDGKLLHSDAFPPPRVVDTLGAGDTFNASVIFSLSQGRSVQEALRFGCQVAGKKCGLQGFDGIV

| Compound | EC50 [1] [µM] | EC50 (HepG2 cells; [2]) [µM] | EC50 (HepG2 cells; [3]) [µM] | IC50 (human KHK-C) [µM] | IC50 (human KHK-C; ADP-Glo) [µM] | IC50 (human KHK-A; ADP-Glo) [µM] | also measured |
| --- | --- | --- | --- | --- | --- | --- | --- |
| C[C@H]1[C@H](O)CN1c1nc(-c2cccc([S@](C)(=N)=O)c2)c2c(n1)C(F)(F)CC2 (single isomer, unassigned) [Example 493] | 0.0527 | 0.0419 | 0.0324 | 0.0117 |  |  |  |
| COc1ccc(-c2nc(N3C[C@@H](O)[C@@H]3C)nc3c2CCC3(F)F)cc1[S@](C)(=N)=O (single isomer, unassigned) [Example 496] | 0.0654 | 0.0239 | 0.009 | 0.0076 |  |  | IC50 (human KHK-A): 0.0144 µM |
| C[C@H]1[C@H](O)CN1c1nc(-c2ccc(OC(F)F)c([S@@](C)(=N)=O)c2)c2c(n1)C(F)(F)CC2 (single isomer, unassigned) [Example 533] | 0.0182 | 0.0089 | 0.0073 | 0.0038 |  |  | IC50 (human KHK-A): 0.0044 µM |
| C[C@H]1[C@H](O)CN1c1nc(-c2ccc3c(c2)CC[C@@]32COCC(=O)N2)c2c(n1)C(F)(F)CC2 (single isomer, unassigned) [Example 549] | 0.0038 | 0.0174 | 0.0054 | 0.0001 |  |  | IC50 (human KHK-A): 0.0054 µM |
| C[C@H]1[C@H](O)CN1c1nc(-c2ccc3c(c2)C(C)(C)C[C@@H]3NS(C)(=O)=O)c2c(n1)C(F)(F)CC2 (single isomer, unassigned) [Example 632] | 0.0103 | > 0.5 | 0.0102 | 0.0005 |  |  |  |
| C[C@H]1[C@H](O)CN1c1nc(-c2ccc3c(c2)[S@@](=N)(=O)CCO3)c2c(n1)C(F)(F)CC2 (single isomer, unassigned) [Example 821] |  |  |  |  | 0.005 |  | EC50 ([1]; read-out: NRK CTG EC50, NRK-52E cells, Cell-Titer Glo, 25 mM fructose, 48 hours): 0.0422 µM; EC50 (HepG2 cells; HepG2 cells, 50% human plasma, read-out: F1P 50% HP EC50): 0.0754 µM; EC50 (HepG2 cells; read-out: F1P 10% FBS EC50, HepG2 cells, cell culture medium (10% FBS)): 0.02 µM |
| C[C@H]1CCN1c1nc(-c2ccc3c(c2)OCCNC3=O)c2c(n1)C(F)(F)CC2 [Example 165, (S)-8-(7,7-difluoro-2-(2-methylazetidin-1-yl)-6,7-dihydro-5H-cyclopenta[d]pyrimidin-4-yl)-3,4-dihydrobenzo[f][1,4]oxazepin-5(2H)-one] | 0.0023 | 0.049 | 0.0097 |  | 0.0008 |  |  |
| C[C@H]1CCN1c1nc2c(c(-c3ccc(C4(O)CS(=O)(=O)C4)cc3)n1)CCC2 [Example 451, (S)-3-hydroxy-3-(4-(2-(2-methylazetidin-1-yl)-6,7-dihydro-5H-cyclopenta[d]pyrimidin-4-yl)phenyl)thietane 1,1-dioxide] | 0.0087 | 0.333 | 0.0776 | 0.0141 |  |  |  |
| C[C@H]1CCN1c1nc(-c2ccc3c(c2)OC[C@@H]3NS(C)(=O)=O)c2c(n1)C(F)(F)CC2 [Example 528, N—((R)-6-(7,7-difluoro-2-((S)-2-methylazetidin-1-yl)-6,7-dihydro-5H-cyclopenta[d]pyrimidin-4-yl)-2,3-dihydrobenzofuran-3-yl)methanesulfonamide] | 0.0034 | 0.0502 | 0.0025 | 0.0002 |  |  |  |
| C[C@H]1[C@H](O)CN1c1nc(-c2ccc3c(c2)COCC32CCC(=O)N2)c2c(n1)C(F)(F)CC2 (stereo partly drawn) [Example 639] | 0.035 | 0.19 | 0.0663 |  |  |  |  |
| C[C@H]1CCN1c1nc(-c2ccc(C3(N)CC(F)(F)C3)cc2)c2c(n1)C(F)(F)CC2 [Example 648, 1-[4-[7,7-difluoro-2-[(2S)-2-methylazetidin-1-yl]-5,6-dihydrocyclopenta[d]pyrimidin-4-yl]phenyl]-3,3-difluoro-cyclobutanamine] | 0.0071 | 0.0276 | 0.0039 | 0.0012 |  |  |  |
| C[C@H]1CCN1c1nc(-c2ccc([C@@H](N)C(F)F)cc2)c2c(n1)C(F)(F)CC2 [Example 649, (1R)-1-[4-[7,7-difluoro-2-[(2S)-2-methylazetidin-1-yl]-5,6-dihydrocyclopenta[d]pyrimidin-4-yl]phenyl]-2,2-difluoro-ethanamine] | 0.0086 | 0.057 | 0.0129 | 0.0024 |  |  |  |
| C[C@H]1[C@H](O)CN1c1nc(-c2ccc3c(c2)OCCC3NS(C)(=O)=O)c2c(n1)C(F)(F)CC2 (stereo partly drawn) [Example 757, N-[7-[7,7-difluoro-2-[(2S,3R)-3-hydroxy-2-methyl-azetidin-1-yl]-5,6-dihydrocyclopenta[d]pyrimidin-4-yl]chroman-4-yl]methanesulfonamide] | 0.0324 | 0.0597 | 0.0206 | 0.0026 |  |  |  |
| C[C@H]1CCN1c1nc(-c2ccc3c(c2)OCC3NS(C)(=O)=O)c2c(n1)C(F)(F)CC2 (stereo partly drawn) [Example 758, N-[6-[7,7-difluoro-2-[(2S)-2-methylazetidin-1-yl]-5,6-dihydrocyclopenta[d]pyrimidin-4-yl]-2,3-dihydrobenzofuran-3-yl]methanesulfonamide] | 0.0022 | 0.041 | 0.0065 | 0.0005 |  |  |  |
| C[C@H]1[C@H](O)CN1c1nc(-c2cc3c(c(CNS(C)(=O)=O)c2)OCC3)c2c(n1)C(F)(F)CC2 [Example 761, N-[[5-[7,7-difluoro-2-[(2S,3R)-3-hydroxy-2-methyl-azetidin-1-yl]-5,6-dihydrocyclopenta[d]pyrimidin-4-yl]-2,3-dihydrobenzofuran-7-yl]methyl]methanesulfonamide] | 0.0274 | 0.129 | 0.0281 | 0.0033 |  |  |  |
| C[C@H]1[C@H](O)CN1c1nc(-c2ccc3c(c2)O[C@@H](CO)CNC3=O)c2c(n1)C(F)(F)CC2 [Example 808, (R)-8-(7,7-difluoro-2-((2S,3R)-3-hydroxy-2-methylazetidin-1-yl)-6,7-dihydro-5H-cyclopenta[d]pyrimidin-4-yl)-2-(hydroxymethyl)-3,4-dihydrobenzo[f][1,4]oxazepin-5(2H)-one] | 0.696 | 0.0418 | 0.0386 |  | 0.0063 |  |  |
| COc1ccc(-c2nc(N3CC[C@@H]3C(F)(F)F)nc3c2CCC3(F)F)cc1[S@@](C)(=N)=O [Example 825, (S)-(5-(7,7-difluoro-2-((R)-2-(trifluoromethyl)azetidin-1-yl)-6,7-dihydro-5H-cyclopenta[d]pyrimidin-4-yl)-2-methoxyphenyl)(imino)(methyl)-λ^6-sulfanone] | 0.0056 | 0.0023 | 0.0009 |  |  |  |  |
| C[C@@H]1N(c2nc(-c3ccc4c(c3)OC[C@@]43COC(=O)N3)c3c(n2)C(F)(F)CC3)C[C@@]1(C)O [Example 829, (3R)-6-[7,7-difluoro-2-[(2S,3R)-3-hydroxy-2,3-dimethyl-azetidin-1-yl]-5,6-dihydrocyclopenta[d]pyrimidin-4-yl]spiro[2H-benzofuran-3,4′-oxazolidine]-2′-one] | 0.0104 |  |  |  | 0.001 | 0.0258 |  |
| O=C1N[C@@]2(CO1)COc1cc(-c3nc(N4CC[C@@H]4C(F)(F)F)nc4c3CCC4(F)F)ccc12 [Example 830, (R)-6-(7,7-difluoro-2-((R)-2-(trifluoromethyl)azetidin-1-yl)-6,7-dihydro-5H-cyclopenta[d]pyrimidin-4-yl)-2H-spiro[benzofuran-3,4′-oxazolidin]-2′-one] | 0.0032 |  |  |  | 0.0002 | 0.002 |  |
| O=C1N[C@@]2(CO1)COc1cc(-c3nc(N4CCC4C(F)F)nc4c3CCC4(F)F)ccc12 (stereo partly drawn) [Example 831, (3R)-6-(2-(2-(difluoromethyl)azetidin-1-yl)-7,7-difluoro-6,7-dihydro-5H-cyclopenta[d]pyrimidin-4-yl)-2H-spiro[benzofuran-3,4′-oxazolidin]-2′-one] | 0.0087 |  |  |  | 0.0006 | 0.0063 |  |
| COc1ccc(-c2nc(N3C[C@@H](O)[C@@H]3C)nc3c2CCC3(F)F)cc1S(=N)(=O)C(F)F (stereo partly drawn) [Example 832, (2S,3R)-1-[4-[3-(difluoromethylsulfonimidoyl)-4-methoxy-phenyl]-7,7-difluoro-5,6-dihydrocyclopenta[d]pyrimidin-2-yl]-2-methyl-azetidin-3-ol] | 0.0205 |  |  |  | 0.0057 | 0.0025 |  |
| C[C@H]1CCN1c1nc2c(c(-c3cccc(S(=N)(=O)C4CCOCC4)c3)n1)CCC2 (stereo partly drawn) [Example 880, imino(3-(2-((S)-2-methylazetidin-1-yl)-6,7-dihydro-5H-cyclopenta[d]pyrimidin-4-yl)phenyl)(tetrahydro-2H-pyran-4-yl)-λ^6-sulfanone] | > 0.1 |  |  |  | 0.0316 | 0.0225 |  |
| COc1ccc(-c2nc(N3C[C@@H](O)[C@@H]3C)nc3c2CCC3(F)F)cc1S(C)(=O)=O [Example 882, (2S,3R)-1-(7,7-difluoro-4-(4-methoxy-3-(methylsulfonyl)phenyl)-6,7-dihydro-5H-cyclopenta[d]pyrimidin-2-yl)-2-methylazetidin-3-ol] | 0.0346 |  |  |  | 0.0051 | 0.0045 |  |
| (S)-6-(2-(2-methylazetidin-1-yl)-6,7-dihydro-5H-cyclopenta[d]pyrimidin-4-yl)pyridine-2-sulfonamide [Example 223] |  |  |  |  | 0.0269 | 0.0337 | EC50 [1, 4]: 0.0741 µM |
| ethyl N-[[4-[2-[(2S)-2-methylazetidin-1-yl]-6,7-dihydro-5H-cyclopenta[d]pyrimidin-4-yl]phenyl]methyl]carbamate [Example 359] |  |  |  |  | 0.0897 | 0.0724 | EC50 [1, 4]: 0.495 µM |
